# Laboratory results published in patent US11912703B2, “6-azaindole compounds” (BRISTOL-MYERS SQUIBB COMPANY, priority 2017, dated 2024).
# Read-outs that look alike come from different tables or passages of the source.
# Experiments:
# human TLR9 = human TLR9 (Homo sapiens (Human), UniProt Q9NR96); assay: TLR9 inhibition reporter assay (HEK-Blue SEAP);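 further: SEAP driven by IFN-β minimal promoter carrying five NF-κB and AP-1 sites, 22 h at 37 °C, compounds 0.05 nM–50 µM, inhibition scaled between agonist-plus-DMSO and reference-inhibitor wells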
# human TLR7 = human TLR7 (Homo sapiens (Human), UniProt Q9NYK1); assay: TLR7 inhibition reporter assay (HEK-Blue SEAP); format: cell-based; details: HEK-Blue cells overexpressing human TLR7, gardiquimod 7.5 μM stimulation
# human TLR8 = human TLR8 (Homo sapiens (Human), UniProt Q9NR97); assay: TLR8 inhibition reporter assay (HEK-Blue SEAP);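 further: SEAP driven by IFN-β minimal promoter with five NF-κB and AP-1 sites, compounds tested 0.05 nM to 50 µM, 22 h incubation, inhibition relative to agonist plus DMSO wells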
# [1] = read-out: TLR9 IC50; HEK-Blue cells overexpressing human TLR9; ODN2006 5 nM stimulation; SEAP reporter
# [2] = read-out: TLR8 IC50; HEK-Blue cells overexpressing human TLR8; R848 15.9 μM stimulation; SEAP reporter
# [3] = read-out: TLR9 IC50; HEK-Blue cells overexpressing human TLR9, ODN2006 5 nM stimulation, SEAP reporter
# [4] = read-out: TLR8 IC50; HEK-Blue cells overexpressing human TLR8, R848 15.9 μM stimulation, SEAP reporter
# human TLR7, sequence (Q9NYK1 27-1049): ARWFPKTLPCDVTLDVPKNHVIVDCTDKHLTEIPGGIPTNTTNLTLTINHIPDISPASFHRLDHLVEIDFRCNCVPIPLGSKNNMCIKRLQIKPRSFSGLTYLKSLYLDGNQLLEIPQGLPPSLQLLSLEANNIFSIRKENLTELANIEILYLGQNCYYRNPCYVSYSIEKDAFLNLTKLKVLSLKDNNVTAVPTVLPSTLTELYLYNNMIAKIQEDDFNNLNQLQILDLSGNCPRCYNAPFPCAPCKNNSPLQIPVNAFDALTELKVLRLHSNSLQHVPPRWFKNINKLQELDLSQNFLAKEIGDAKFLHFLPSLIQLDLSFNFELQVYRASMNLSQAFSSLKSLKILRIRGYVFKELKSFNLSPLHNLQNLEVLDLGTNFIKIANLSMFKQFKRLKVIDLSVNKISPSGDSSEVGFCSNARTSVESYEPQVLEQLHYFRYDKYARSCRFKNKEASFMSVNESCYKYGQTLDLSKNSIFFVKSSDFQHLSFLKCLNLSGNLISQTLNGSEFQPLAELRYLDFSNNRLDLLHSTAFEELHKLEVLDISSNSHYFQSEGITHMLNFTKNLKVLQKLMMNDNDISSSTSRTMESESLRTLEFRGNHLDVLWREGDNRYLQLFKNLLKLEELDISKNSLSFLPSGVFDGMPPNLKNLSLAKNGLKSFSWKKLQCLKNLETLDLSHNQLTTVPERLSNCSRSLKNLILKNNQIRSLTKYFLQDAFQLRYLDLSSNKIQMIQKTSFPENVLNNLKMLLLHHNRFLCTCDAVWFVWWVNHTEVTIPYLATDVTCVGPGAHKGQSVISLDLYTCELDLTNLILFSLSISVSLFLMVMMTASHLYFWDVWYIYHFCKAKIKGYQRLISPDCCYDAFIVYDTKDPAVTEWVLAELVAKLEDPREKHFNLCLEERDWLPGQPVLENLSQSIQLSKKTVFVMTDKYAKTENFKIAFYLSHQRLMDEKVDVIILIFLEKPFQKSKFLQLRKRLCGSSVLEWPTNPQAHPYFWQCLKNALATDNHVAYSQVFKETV
# human TLR9, sequence (Q9NR96 26-1032): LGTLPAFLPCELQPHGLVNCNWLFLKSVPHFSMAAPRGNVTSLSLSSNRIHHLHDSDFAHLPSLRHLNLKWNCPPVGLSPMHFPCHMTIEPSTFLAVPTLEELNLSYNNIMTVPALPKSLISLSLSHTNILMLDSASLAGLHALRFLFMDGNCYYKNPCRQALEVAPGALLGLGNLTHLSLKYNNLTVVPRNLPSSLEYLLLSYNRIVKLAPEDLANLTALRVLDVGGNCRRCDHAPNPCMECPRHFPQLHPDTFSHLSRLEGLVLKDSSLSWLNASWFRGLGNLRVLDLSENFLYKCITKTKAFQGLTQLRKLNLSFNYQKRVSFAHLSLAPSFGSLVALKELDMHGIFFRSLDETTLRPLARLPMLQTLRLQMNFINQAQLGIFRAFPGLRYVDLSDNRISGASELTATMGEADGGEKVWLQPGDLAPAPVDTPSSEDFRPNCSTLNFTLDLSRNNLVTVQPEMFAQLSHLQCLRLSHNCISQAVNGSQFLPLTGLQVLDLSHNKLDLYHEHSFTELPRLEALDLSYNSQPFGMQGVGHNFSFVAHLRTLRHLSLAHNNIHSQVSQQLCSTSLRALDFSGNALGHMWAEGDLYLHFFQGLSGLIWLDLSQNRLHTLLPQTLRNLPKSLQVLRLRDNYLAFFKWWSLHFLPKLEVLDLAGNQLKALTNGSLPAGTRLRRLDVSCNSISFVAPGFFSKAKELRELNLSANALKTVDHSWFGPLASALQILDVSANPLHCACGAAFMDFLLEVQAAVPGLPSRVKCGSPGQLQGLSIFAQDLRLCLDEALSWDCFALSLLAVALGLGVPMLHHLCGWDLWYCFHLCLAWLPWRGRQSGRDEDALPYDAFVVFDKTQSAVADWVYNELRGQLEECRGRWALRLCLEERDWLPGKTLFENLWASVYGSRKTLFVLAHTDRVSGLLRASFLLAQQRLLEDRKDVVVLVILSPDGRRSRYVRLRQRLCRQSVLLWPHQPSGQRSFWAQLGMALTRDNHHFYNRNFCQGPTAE
# human TLR8, sequence (Q9NR97 27-1041): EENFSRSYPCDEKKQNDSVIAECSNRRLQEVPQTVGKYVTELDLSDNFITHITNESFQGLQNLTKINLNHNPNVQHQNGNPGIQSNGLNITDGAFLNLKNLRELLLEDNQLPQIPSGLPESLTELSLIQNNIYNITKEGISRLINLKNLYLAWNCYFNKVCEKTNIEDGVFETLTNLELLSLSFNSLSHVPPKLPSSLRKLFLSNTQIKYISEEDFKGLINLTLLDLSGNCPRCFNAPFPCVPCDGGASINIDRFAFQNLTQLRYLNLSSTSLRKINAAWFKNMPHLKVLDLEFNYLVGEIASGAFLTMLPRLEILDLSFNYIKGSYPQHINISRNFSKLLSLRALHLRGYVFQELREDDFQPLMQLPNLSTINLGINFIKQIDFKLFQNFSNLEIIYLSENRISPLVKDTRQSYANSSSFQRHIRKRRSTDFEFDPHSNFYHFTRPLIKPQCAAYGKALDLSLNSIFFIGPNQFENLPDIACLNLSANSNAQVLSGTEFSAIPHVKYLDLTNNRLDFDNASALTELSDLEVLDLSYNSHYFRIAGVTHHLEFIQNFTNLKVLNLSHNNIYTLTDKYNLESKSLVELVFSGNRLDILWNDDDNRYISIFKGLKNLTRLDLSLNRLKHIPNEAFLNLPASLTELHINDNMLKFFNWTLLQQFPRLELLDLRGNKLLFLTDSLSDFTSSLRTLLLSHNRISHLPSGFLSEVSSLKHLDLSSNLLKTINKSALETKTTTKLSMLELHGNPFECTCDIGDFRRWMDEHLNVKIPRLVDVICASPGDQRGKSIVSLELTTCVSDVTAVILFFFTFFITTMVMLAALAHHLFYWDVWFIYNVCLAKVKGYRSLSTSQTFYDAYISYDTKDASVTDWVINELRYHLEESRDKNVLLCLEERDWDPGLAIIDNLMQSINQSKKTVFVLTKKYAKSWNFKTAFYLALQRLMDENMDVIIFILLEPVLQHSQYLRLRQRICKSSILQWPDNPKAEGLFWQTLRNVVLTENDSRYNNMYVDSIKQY
Structure (SMILES),IC50 (human TLR9; [1]) [nM],IC50 (human TLR7) [nM],IC50 (human TLR8; [2]) [nM],IC50 (human TLR9) [nM],IC50 (human TLR8) [nM],IC50 (human TLR9; [3]) [nM],IC50 (human TLR8; [4]) [nM]
Cc1cc(-c2[nH]c3cnc(C4CCC(NC(C)C)CC4)c(F)c3c2C(C)C)cn2ncnc12 (stereo not drawn) [Example 230],1700,0.41,0.77,,,,
"Cc1c(-c2[nH]c3cnc(N4CC5(C4)CN(C4COC4)C5)c(F)c3c2C(C)C)cn2ncnc2c1C [Example 400, 6-(4-fluoro-3-isopropyl-5-(6-(oxetan-3-yl)-2,6-diazaspiro[3.3]heptan-2-yl)-1H-pyrrolo[2,3-c]pyridin-2-yl)-7,8-dimethyl-[1,2,4]triazolo[1,5-a]pyridine]",,82,,> 50000,1.6,,
Cc1c(-c2[nH]c3cnc(N4CCN(C5CCOCC5)CC4)c(F)c3c2C(C)C)cn2ncnc2c1C [Example 431],,3.5,,,,8180,0.32
COc1cc(-c2[nH]c3cnc(C4CCC(N5CC6(COC6)C5)CC4)c(C)c3c2C(C)C)cn2ncnc12 (stereo not drawn) [Example 246],,2,,,,705,17
Cc1cc(-c2[nH]c3cnc(C4CCC(NCC(C)(C)C)CC4)c(F)c3c2C(C)C)cn2ncnc12 (stereo not drawn) [Example 48],,12,,,,9530,13
CNC(=O)CN1CCC(c2cc3c(C(C)C)c(-c4cc(C)c5ncnn5c4)[nH]c3cn2)CC1 [Example 287],,2,,,,718,16
COc1cc(-c2[nH]c3cnc(C4CCN(CCS(C)(=O)=O)CC4)c(C)c3c2C(C)C)cn2ncnc12 [Example 25],,2.3,,,,188,7.2
COc1cc(-c2[nH]c3cnc(C4CCC(N(CC#N)C5COC5)CC4)c(F)c3c2C(C)C)cn2ncnc12 (stereo not drawn) [Example 114],,4.8,,,,17400,6.6
CCN(C)C1CCN(c2ncc3[nH]c(-c4cn5ncnc5c(C)c4C)c(C(C)C)c3c2C)CC1 [Example 55],,1.3,,,,769,1.3
Cc1c(N2CCC(NC34CC(C3)C4)CC2)ncc2[nH]c(-c3cc(C)c4ncnn4c3)c(C(C)C)c12 [Example 148],,1.1,,,,1170,1.7
CNCC(=O)N1CCC(c2ncc3[nH]c(-c4cc(C)c5ncnn5c4)c(C(C)C)c3c2F)CC1 [Example 39],,6.4,,,,5530,16
"COc1cc(-c2[nH]c3cnc(N4CCNCC4)c(Cl)c3c2C(C)C)cn2ncnc12 [Example 6, 6-(4-chloro-3-isopropyl-5-(piperazin-1-yl)-1H-pyrrolo[2,3-c]pyridin-2-yl)-8-methoxy-[1,2,4]triazolo[1,5-a]pyridine]",,0.61,,664,1.4,,
COc1cc(-c2[nH]c3cnc(C4CCC(N(CC#N)C5COC5)CC4)c(F)c3c2C(C)C)cn2ncnc12 (stereo not drawn) [Example 115],,1.4,,,,15800,2.4
COc1cc(-c2[nH]c3cnc(N4CCN(C5CCC5)CC4)c(F)c3c2C(C)C)cn2ncnc12 [Example 391],,1.4,,,,4050,0.9
Cc1cc(-c2[nH]c3cnc(N4CCC(NCC5(C)COC5)CC4)c(F)c3c2C(C)C)cn2ncnc12 [Example 129],,0.75,,,,5900,0.15
CNC(=O)CN1CCC(c2cc3c(C(C)C)c(-c4cc(OC)c5ncnn5c4)[nH]c3cn2)CC1 [Example 292],,7,,,,303,47
COc1cc(-c2[nH]c3cnc(N4CCN(CC5CC5)C[C@H]4C)c(F)c3c2C(C)C)cn2ncnc12 [Example 442],,2.5,,,,7490,7.1
Cc1cc(-c2[nH]c3cnc(N4CCC(N(C)CC(C)(C)C)CC4)c(F)c3c2C(C)C)cn2ncnc12 [Example 196],,3,,,,2080,1.1
CCN(C)C1CCC(c2ncc3[nH]c(-c4cc(OC)c5ncnn5c4)c(C(C)C)c3c2F)CC1 (stereo not drawn) [Example 228],812,1.5,2.6,,,,
Cc1cc(-c2[nH]c3cnc(C4CCC(NC(C)C)CC4)c(F)c3c2C(C)C)cn2ncnc12 (stereo not drawn) [Example 198],,2.4,,,,1150,2.6
COc1cc(-c2[nH]c3cnc(C4CCC(NCC5(C)COC5)C4)cc3c2C(C)C)cn2ncnc12 (stereo not drawn) [Example 275],,35,,,,845,37
COc1cc(-c2[nH]c3cnc(N4CCC(NC(C)C(C)C)CC4)cc3c2C(C)C)cn2ncnc12 (stereo not drawn) [Example 313],,2.9,,,,2420,0.27
Cc1c(-c2[nH]c3cnc(N4CC5(CN(CC#N)C5)C4)c(F)c3c2C(C)C)cn2ncnc2c1C [Example 397],,48,,,,43200,30
COc1cc(-c2[nH]c3cnc(N4CC5(CN(CC6(C)COC6)C5)C4)c(F)c3c2C(C)C)cn2ncnc12 [Example 376],,9.5,,,,6000,> 3120
